Values quoted from earlier work in patent US8840932B2, “Antiseptic compositions and methods” (priority 2002, dated 2014).

Details: 25° C.

**Q.** Which solubility in water does the source give for `II` [elemental iodine, iodine] here?
**A.** 0.03 wt-%
